According to patent US8598118B2, “Hepatocyte growth factor mimics as therapeutic agents” (Washington State University, priority 2011, dated 2013):
Where a SMILES comes first, the peptide text is derived from it. [ ]: non-standard residue; d: D form. The star is where a group is joined. dNle = CCCC[C@@H](N)C(=O)O; Hexanoyl = CCCCCC(=O)*; Ahx = NCCCCCC(=O)O

Columns and labels:
[1] = Blood stability studies (heparinized rat blood, 37° C.); type: in vitro ADME; conditions: heparinized whole blood, single phase exponential decay, read-out: stability t1/2 in blood
Description: At the end of each incubation, 20 μL of Nle^1-AngIV (100 μg/mL) was added to each sample as an internal standard. […] All samples were centrifuged at 4° C., 2300×g for 5 min and the supernatants were transferred to clean tubes.
Samples were then separated by HPLC on an Econosphere C18 (100 mm×2.1 mm) from Grace Davison Discovery Science (Deerfield, Ill.). […] The mobile phase consisted of HPLC water (Sigma St. Louis, Mo.) with 0.1% trifluoroacetic or 0.1% heptafluorobutyric acid (Sigma St. Louis, Mo.) and varying concentrations of ACN or methanol. Separation was carried out using a gradient method, at ambient temperature and a flow rate of 0.3 mL/min (see below for more information). Stability half-lives were determined assuming a normal single phase exponential decay using Prism 5 graphical/statistical program (GraphPad, San Diego, Calif.).

Met = assay: Inhibition of HGF-dependent Met phosphorylation in HEK293 cells; type: cell-based, human; conditions: 10 min
Description: HEK293 cells were seeded in 6 well tissue culture plates and grown to 95% confluency in DMEM containing 10% FBS. The cells were serum deprived for 24 h prior to the treatment to reduce the basal levels of phospho-Met. Following serum starvation, cocktails comprised of vehicle and HGF with/without 6-AH analogs were prepared and pre-incubated for 30 min at room temperature. The cocktail was then added to the cells for 10 min to stimulate the Met receptor and downstream proteins. Cells were harvested using RIPA lysis buffer (Millipore; Billerica, Mass.) fortified with phosphatase inhibitor cocktails 1 and 2 (Sigma-Aldrich; St. Louis, Mo.). The lysate was clarified by centrifugation at 15,000 nx g for 15 min, protein concentrations were determined using the BCA total protein assay (Pierce), and then appropriate volumes of the lysates were diluted with 2× reducing Laemmli buffer and heated for ten min at 95° C. Samples containing identical amounts of protein were resolved using SDS-PAGE (Criterion, BioRad Laboratories), transferred to nitrocellulose, and blocked in Tris-buffered saline (TBS) containing 5% milk for 1 h at room temperature. The phospho-Met antibody were added to the blocking buffer at a final concentration of 1:1000 and incubated at 4° C. overnight with gentle agitation. The membranes were then washed several times with water and TBS ([…], 0.05% Tween-20), a 1:5000 dilution of horseradish-peroxidase conjugated goat anti-rabbit antiserum was added, and the membranes further incubated for 1 h at room temperature. Proteins were visualized using the Supersignal West Pico Chemiluminescent Substrate system (Pierce, Fenton, Mo.) and molecular weights determined by comparison to protein ladders (BenchMark, Invitrogen, and Kaleidoscope, BioRad). Film images were digitized and analyzed using a UVP phosphoimager.

MDCK cells [2] = assay: HGF-dependent MDCK cell proliferation (MTT); type: cell-based, canine; conditions: analog 10^−10M, 4 days
Description: 5000 MDCK cells were seeded into the wells of a 96 well plates in 10% FBS DMEM. To induce cellular quiescence, the cells were serum deprived for 24 h prior to initiating the treatments. Following serum starvation, 10 ng/ml HGF alone and with various concentrations of 6-AH analogs or PBS vehicle were added to the media. The cells were allowed to grow under these conditions for 4 days with a daily addition of 6-AH analogs. On the fourth day, 1 mg/ml of […] (MTT, Sigma-Aldrich) prepared in PBS was added to the cells and incubated for 4 h. Dimethyl sulfoxide diluted in a 0.01M glycine buffer was added to solubilize the cell membranes and the absorbance of reduced MTT in the buffer was quantitated at 590 nm using a plate reader (Biotek Synergy 2, Winooski, Vt.). HGF-dependent proliferation was determined by subtracting the basal proliferation (in the absence of HGF) from total proliferation rates in groups containing HGF.

MDCK cells [3] = assay: Inhibition of HGF-dependent scattering in MDCK cells; type: cell-based, canine; conditions: 20 ng/ml HGF, 48 h
Description: (§1) MDCK cells were grown to 100% confluency on the coverslips in six-well plates and washed twice with PBS. The confluent coverslips were then aseptically transferred to new six well plates containing 900 μl serum free DMEM. Norleual, Hinge peptide, and/or HGF (20 ng/ml) were added to appropriate wells. Control wells received PBS vehicle. Plates were incubated at 37° C. with 5% CO2 for 48 hours. Media was removed and cells were fixed with methanol. Cells were stained with Diff-Quik Wright-Giemsa (Dade-Behring, Newark, Del.) and digital images were taken. Coverslips were removed with forceps and more digital images were captured. Pixel quantification of images was achieved using Image J and statistics were performed using Prism 5 and InStat v.3.05.
as §1, with “h.” for “hours.”, “v.3.05 (GraphPad; San Diego, Calif.).” for “v.3.05.”

[4] = rat, iv, 24 mg/kg
Description: (§2) Male Sprague-Dawley rats (250+ g) were allowed food (Harlan Teklad rodent diet) and water ad libitum in our AAALAC certified animal facility. Rats were housed in temperature-controlled rooms with a 12 h light/dark cycle. The right jugular veins of the rats were catheterized with sterile polyurethane Hydrocoat™ catheters (Access Technologies, Skokie, Ill., USA) under ketamine (Fort Dodge Animal Health, Fort Dodge, Iowa, USA) and isoflurane (Vet One™, MWI, Meridian, Id., USA) anesthesia. The catheters were exteriorized through the dorsal skin. The catheters were flushed with heparinized saline before and after blood sample collection and filled with heparin-glycerol locking solution (6 mL glycerol, 3 mL saline, 0.5 mL gentamycin (100 mg/mL), 0.5 mL heparin (10,000 u/mL)) when not used for more than 8 h. The animals were allowed to recover from surgery for several days before use in any experiment, and were fasted overnight prior to the pharmacokinetic experiment.
(§3) Catheterized rats were placed in metabolic cages prior to the start of the study and time zero blood samples were collected. […] After dosing, blood samples were collected as follows (times and blood volumes collected are listed in chronological order):
(§4) After each blood sample was taken, the catheter was flushed with saline solution and a volume of saline equal to the volume of blood taken was injected (to maintain total blood volume).
(§5) Upon collection into polypropylene microfuge tubes without heparin, blood samples were immediately centrifuged at 4° C., 2300×g for 5 min to remove any cells and clots and the serum transferred into clean microcentrifuge tubes. A volume of internal standard (Nle^1-AngIV, 100 μg/mL) equal to 0.1 times the sample serum volume was added. A volume of ice-cold acetonitrile equal to four times the sample serum volume was then added and the sample vortexed vigorously for 30 s. The supernatants were transferred to clean tubes, then held on ice until the end of the experiment, and stored at 4° C. afterward until further processing.
(§6) All samples were evaporated to dryness in a Savant SpeedVac® concentrator. […] The samples were then transferred to HPLC autosampler vials and 100 μl was injected into the HPLC system a total of 2 times (2 HPLC/MS analyses) for each sample.
(§7) Data collection and integration were achieved using Shimadzu LCMS solution software. The analytical column used was an Econosphere C18 (100 mm×2.1 mm) from Grace Davison Discovery Science (Deerfield, Ill., USA). The mobile phase consisted of HPLC grade methanol and water with 0.1% trifluoroacetic acid. Separation was carried out using a non-isocratic method (40%-50% methanol over 10 min) at ambient temperature and a flow rate of 0.3 mL/min. […] Data were normalized based on the recovery of the internal standard.
(§8) Pharmacokinetic analysis was performed using data from individual rats. The mean and standard deviation (SD) were calculated for the group.

in vivo = conditions: male, Sprague-Dawley, rat, iv, 24 mg/kg
Description: as §2, §3, §4, §5, §6, §7, §8

[5] = tested on: B16-F10 murine melanoma cells; assay: B16-F10 melanoma lung colony formation; type: in vivo; conditions: daily IP 10 μg/kg/day and 100 μg/kg/day, 14 days, C57BL/6 mice
Description: Six to eight month old C57BL/6 mice were injected with 400,000 B16-F10 cells in 200 μl PBS by tail vein injection and subsequently received daily intraperitoneal injections of either D-Nle-X-Cys-NH—(CH2)5—CONH2 (10 μg/kg and 100 μg/kg) or a PBS vehicle control. Two weeks later, mice were anesthetized and lungs were perfused with PBS and removed. Photos were taken and lungs were solubilized in 1% Triton x-100, 20 mM Tris, 0.15 M NaCl, 2 mM EDTA, and 0.02% sodium azide. Samples were disrupted by sonication (Mixonix, Farmingdale, N.Y.) and spun. The supernatant was transferred to a 96 well plate and melanin absorbance at 410 nm was measured using a plate reader.

[6] = Stability of Dihexa in the blood (not shown); type: in vitro ADME

Structure (SMILES)	half-life [1] [h]	inhibition of HGF-dependent Met auto-phosphorylation (Met)	inhibition of HGF-dependent MDCK cell proliferation (MDCK cells [2])	inhibition of HGF-dependent MDCK cell scattering (MDCK cells [3])	t½ (in vivo elimination half-life) ([4]; male, Sprague-Dawley) [h]	KE ([4]; in vivo) [min⁻¹]	AUC(0-inf) (in vivo) [ng·h/mL]	Vd (in vivo) [L/kg]	clearance (in vivo) [mL/min/kg]	half-life (in vivo) [h]	inhibition of B16-F10 melanoma lung colonization [5]	inhibition of B16-F10 melanoma lung colonization ([5]; listed as D-Nle-Cys-Ile-(6)-amino-hexanoic amide)	stable in the blood [6]
CCCC[C@@H](N)C(=O)N[C@@H](Cc1ccc(O)cc1)C(=O)N[C@H](C(=O)NCCCCCC(N)=O)[C@@H](C)CC (H-[dNle]YI[Ahx]-NH2)	1.33	able to block Met auto-phosphorylation	marked inhibitory activity	different from the HGF alone group but not different from the control group	16.867 ± 6.523	0.001 ± 0.0002	11500	104 ± 65	58.3 ± 15.6	16.9	–	–	–
CCCC[C@@H](N)C(=O)N[C@@H](CS)C(=O)N[C@H](C(=O)NCCCCCC(N)=O)[C@@H](C)CC [D-Nle-Cys-Ile-NH—(CH2)5—CONH2] (H-[dNle]CI[Ahx]-NH2)	–	able to block Met auto-phosphorylation	marked inhibitory activity	different from the HGF alone group but not different from the control group	–	–	–	–	–	–	radically prevented lung colonization	obvious reduction in melanoma colonies	–
CCCCCC(=O)N[C@@H](Cc1ccc(O)cc1)C(=O)N[C@H](C(=O)NCCCCCC(N)=O)[C@@H](C)CC [Dihexa, N-hexanoic-Tyr-Ile-(6)-aminohexanoic amide] (Hexanoyl-Tyr-Ile-[Ahx]-NH2)	–	–	–	–	–	–	–	–	–	–	–	–	over 5 hours
